US20030130297A1, “Oral administration of 6-hydroxy-oxymorphone for use as an analgesic” (Endo Pharmaceuticals, Inc., priority 2001, published 2003)

Key:
[1] = molecular target: Opiate, Kappa (Human Recombinant (Homo sapiens, UniProt P41145)); assay: Opiate Kappa receptor binding assay
[2] = molecular target: Opiate, Mu (Human Recombinant) (Homo sapiens, UniProt P35372); assay: Opiate Mu receptor binding assay
[3] = Pharmacokinetic studies: blood plasma levels and pain relief over 12 hours after administration of oxymorphone; type: in vivo; details: for Time at which blood plasma levels peak: after administration of oxymorphone
Protocol: In two separate studies, blood plasma levels and indications of pain relief were recorded over a 12 hour period after.
After this time, oxymorphone levels again drop and eventually fall to levels near the earlier plateau.
After the initial peak, however, a more or less steady decline in the 6-hydroxy oxymorphones plasma levels is observed.
The amount administered will be dependent upon normal criteria such as patient weight, intensity of pain, and other factors. Based on the pharmacokinetic studies, blood plasma levels around at least 0.2 ng/mL will provide some analgesia. The upper plasma level limit will be ultimately established by safety concerns. […] Subsequent doses may be required to maintain these blood levels.

[4] = molecular target: Opiate, Delta 2 (Human Recombinant) (Homo sapiens, UniProt P41143); assay: Opiate Delta 2 receptor binding assay
[5] = system: Opiate, Delta 1; assay: Opiate Delta 1 receptor binding assay

Opiate, Delta 2 (Human Recombinant), sequence (P41143 whole entry): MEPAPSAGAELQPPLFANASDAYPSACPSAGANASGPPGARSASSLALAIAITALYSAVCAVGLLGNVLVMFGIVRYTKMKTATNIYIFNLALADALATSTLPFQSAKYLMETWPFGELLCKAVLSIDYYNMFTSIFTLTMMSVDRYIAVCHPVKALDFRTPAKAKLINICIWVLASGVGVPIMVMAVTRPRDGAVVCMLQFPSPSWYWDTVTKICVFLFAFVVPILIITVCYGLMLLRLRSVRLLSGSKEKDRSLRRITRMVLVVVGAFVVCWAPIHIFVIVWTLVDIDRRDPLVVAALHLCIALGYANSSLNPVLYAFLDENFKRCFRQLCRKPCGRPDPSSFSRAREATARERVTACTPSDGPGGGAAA
Opiate, Kappa (Human Recombinant, sequence (P41145 whole entry): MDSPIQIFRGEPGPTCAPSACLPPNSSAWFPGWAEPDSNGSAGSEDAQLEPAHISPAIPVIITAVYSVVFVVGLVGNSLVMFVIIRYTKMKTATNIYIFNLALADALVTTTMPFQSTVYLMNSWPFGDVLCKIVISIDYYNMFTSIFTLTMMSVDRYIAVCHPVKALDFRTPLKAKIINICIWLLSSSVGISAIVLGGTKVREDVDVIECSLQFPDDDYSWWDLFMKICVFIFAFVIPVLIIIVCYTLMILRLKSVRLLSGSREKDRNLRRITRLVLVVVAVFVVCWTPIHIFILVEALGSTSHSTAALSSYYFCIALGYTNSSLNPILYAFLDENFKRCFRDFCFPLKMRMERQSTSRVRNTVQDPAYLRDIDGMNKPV
Opiate, Mu (Human Recombinant), sequence (P35372 whole entry): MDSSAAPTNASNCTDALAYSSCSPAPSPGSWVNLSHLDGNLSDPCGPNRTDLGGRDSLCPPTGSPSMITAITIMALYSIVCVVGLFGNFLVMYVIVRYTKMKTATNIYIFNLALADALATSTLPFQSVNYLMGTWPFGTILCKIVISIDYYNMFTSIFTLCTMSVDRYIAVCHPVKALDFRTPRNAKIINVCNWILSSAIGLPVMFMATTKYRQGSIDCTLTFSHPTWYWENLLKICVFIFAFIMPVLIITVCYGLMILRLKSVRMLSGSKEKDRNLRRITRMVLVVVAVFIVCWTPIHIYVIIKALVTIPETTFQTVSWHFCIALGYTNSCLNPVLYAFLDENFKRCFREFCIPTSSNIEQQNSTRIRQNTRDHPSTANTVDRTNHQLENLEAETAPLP

Row | SMILES | Assay report, binding, Opiate Kappa ([1]; 10 nm (1.0 E−8)) [%] | Assay report, binding, Opiate Kappa ([1]; 10 μm (1.0 E−5)) [%] | Assay report, binding, Opiate Mu ([2]; 10 nm (1.0 E−8)) [%] | Assay report, binding, Opiate Mu ([2]; 10 μm (1.0 E−5)) [%] | Time at which blood plasma levels peak [3] [h] | Blood plasma level that provides some analgesia ([3]; based on the pharmacokinetic studies) | Assay report, binding, Opiate Delta 2 ([4]; 10 nm (1.0 E−8)) [%] | Assay report, binding, Opiate Delta 2 ([4]; 10 μm (1.0 E−5)) [%] | Assay report, binding, Opiate Delta 1 ([5]; 10 nm (1.0 E−8)) [%] | Assay report, binding, Opiate Delta 1 ([5]; 10 μm (1.0 E−5)) [%] | Time at which the blood plasma level spikes again ([3]; from administration of oxymorphone) [h]
1 | CN1CC[C@]23c4c5ccc(O)c4O[C@H]2C(O)CC[C@@]3(O)[C@H]1C5 (some centres unmarked) [6-HYDROXY OXYMORPHONE, 6-hydroxy oxymorphone] | 2.45 | 62.47 | 63.16 | 99.91 | ≤ 2 | at least 0.2 ng/mL | 7.19 | 55.45 | −4.12 | 90.48 | –
2 | CN1CC[C@]23c4c5ccc(O)c4O[C@H]2C(=O)CC[C@@]3(O)[C@H]1C5 [OXYMORPHONE, oxymorphone] | – | – | – | – | ≤ 2 | – | – | – | −18.26 | 89.03 | 4 to 6
